According to patent publication EP0452507A1, “MEDICINE COMPRISING TOCOPHERYL GLYCOSIDE AS ACTIVE INGREDIENT” (NIPPON HYPOX LABORATORIES INCORPORATED, priority 1989, dated 1991):

Tested on: carrageenin-induced inflammation
Experiment: carrageenin-induced inflammation, right hind paw swelling by volumetry
Type: in vivo, rats
Settings: Example 7, Fig. 6; for inhibition activity against carrageenin-induced inflammation: VIE-MAN 10, 30, 100 mg/kg, depending upon its dose, comparators 10 mg/kg, intraperitoneally
Protocol: Six groups each consisting of five male SD rats weighing 180 to 220 g were used (total 30 rats), and each rat was measured for a size of the subplantar region1 of the right hind paw.
In order to induce carrageenin-induced inflammation, 0.1 ml/rat of a physiological saline solution of 1 % X-carrageenin was prepared.
One out of the six groups was used as Control group. A physiological saline solution of 10 % Nikkol was administered intraperitoneally to each rat of this group, and 0.5 hours after the administration of the physiological saline solution of 10 % Nikkol, 0.1 ml of the physiological saline solution of 1 % X-carrageenin was administered intracutaneously into the subplantar region of the right hind paw of each rat. Then, 0.5, 1, 2, 3 and 4 hours after the administration of […] of the physiological saline solution of 1 % X-carrageenin, the swelling on the subplantar region of the right hind paw of each rat was measured by volumetry, arid the average of swelling ratios of the group in every measurement was determined on the basis of the measurement values of the sizes of subplantar regions of the right hind paws of the rats obtained before the administration of the physiological saline solution of 10 % Nikkol solution.
The procedure for Control group was repeated except that a physiological saline solution of 10 % Nikkol containing VIE-MAN in place of the physiological saline solution of 10 % Nikkol was administered intraperitoneally in such a dose that the amount of VIE-MAN was 10 mg/kg.
The procedure for Control group was repeated except that a physiological saline solution of 10 % Nikkol containing VIE-MAN in place of the physiological saline solution of 10 % Nikkol was administered intraperitoneally in such a dose that the amount of VIE-MAN was 30 mg/kg.
The procedure for Control group was repeated except that a physiological saline solution of 10 % Nikkol containing VIE-MAN in place of the physiological saline solution of 10 % Nikkol was administered intraperitoneally in such a dose that the amount of VIE-MAN was 100 mg/kg.
(§1) The procedure for Example groups ⑭, ⑮ and ⑯ was repeated except that a physiological saline solution of 10 % Nikkol containing cortisone acetate which was a steroidal anti-inflammatory preparation (immunosuppressive preparation) in place of the physiological saline solution of 10 % Nikkol containing VIE-MAN was administered intraperitoneally in such a dose that the amount of the cortisone acetate was 10 mg/kg.
as §1, with “indomethacin” for “cortisone acetate”, “nonsteroidal” for “steroidal”, “(antipyretic analgesic antiphlogistic” for “(immunosuppressive”

SMILES | average of swelling ratios (10, 30 and 100 mg/kg intraperitoneally, 0.5 hour after administration of 1 % carrageenin solution, versus Control group) | inhibition activity against carrageenin-induced inflammation | inhibition activity against carrageenin-induced inflammation compared with VIE-MAN (comparators 10 mg/kg intraperitoneally)
Cc1c(C)c2c(c(C)c1OC1OC(CO)C(O)C(O)C1O)CCC(C)(CCCC(C)CCCC(C)CCCC(C)C)O2 (racemic) [VIE-MAN, dl-a-tocopheryl-a-D-mannoside] | significantly lower than that of swelling ratios of Control group | excellent inhibition activity | –
COc1ccc2c(c1)c(CC(=O)O)c(C)n2C(=O)c1ccc(Cl)cc1 [indomethacin, reference compound] | – | significant activity at and after 0.5 hour | lower than that of VIE-MAN
